Where two headings read alike, the source gives them in different places. Square brackets hold non-standard residues; d marks the D form. Peptide text beside a SMILES is read from it.
Key:
CD80-Ig = target: T1, CD80-Ig (Homo sapiens, UniProt P33681); assay: Competitive kinetic analysis (SPR): CD28 peptides versus CD28-Ig for binding indirectly immobilized CD80-Ig; details: for kd: competition with CD28-Ig 3.2 μM
T1 construct: extracellular domain of CD80 fused with the constant region of mouse IgG1 heavy chain
T1 sequence (P33681 35-242 limits assumed, other chains not shown): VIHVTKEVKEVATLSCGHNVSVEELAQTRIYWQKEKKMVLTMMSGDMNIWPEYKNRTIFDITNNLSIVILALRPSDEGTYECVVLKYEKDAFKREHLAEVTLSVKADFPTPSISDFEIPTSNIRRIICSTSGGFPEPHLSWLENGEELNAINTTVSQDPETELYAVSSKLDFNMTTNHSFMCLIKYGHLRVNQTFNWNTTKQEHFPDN
Experimental: Competitive kinetic analysis was performed as described previously using purified anti-mouse IgG1 Fc (31437zz) (Pierce City, Ill., USA) to indirectly immobilize CD80-Ig (39). […] The binding kinetics of CD28-Ig was assessed by injecting a range of CD28-Ig concentration (187 nM to 12 μM) over immobilized CD80-Ig (324 RU) for 5 min at 10 μl/min. CD80-Ig was regenerated using a 3 min injection of 5 mM NaOH. For competitive kinetic analysis, 100 μl of a 3.2 μM CD28-Ig solution was mixed with 100 μl of EL CD28 or RI CD28 peptides (6.18 μM to 503 μM in HBS-EP) and injected over the surface of CD80-Ig as secondary analyte for 5 min with a flow rate of 10 μl/min. The CD80-Ig surface was regenerated between injections by washing for 3 min with 5 mM NaOH. The mixtures were also injected on an empty flow cell with no protein immobilized, as a control.
In competitive kinetic experiments, the observed response R is the sum of the contributions of R1 and R2 from the two analytes. The binding data was analyzed using the equation R(t)=R1 (CD28-Ig)+R2 (CD28-P) (3) where • R1=Rmaxka1C1/kf−ks{k1(kf−ks)/kf*ks+k1−kf/kf*e^−kf^(t−t0)−k1ks/ks*e^−ks(t−t0)} • R2=RmaxMW1ka2C2/MW2*kf−ks[{k2(kf−ks)}/kf*ks}+(k2−kf/kf)*e^−kf^(t−t0)−(k2−ks/ks)*e^−ks(t−t0) • kf=0.5{ktq+k2+π(ka1−k2)^2+4kf1kCD28PC1C2} • ks=0.5{kt1+k2−π(kt1−k2)^2+4k1k2C1C2} • kt CD28-Ig=ka1C+kd1 • kt2=ka2C2+kd2
When competitive data were analyzed, ka, kd and Rmax values obtained for the interaction between CD80-Ig and CD28-Ig were used as non floating parameters and the rate constants for CD28 peptides were calculated from the injection phase data using the expanded equation 3.
FIGS. 4a and 4b are representative sensograms obtained from the competitive experiments using the CD28-Ig and ELCD28 and RICD28 APR respectively. The top curve is the interaction of CD28-Ig (3.2 μM) alone with the CD80-Ig. The response level gradually goes down as the concentration of the specified CD28 peptide increases. […] However, the dissociation constant varied with varying concentration of EL CD28 peptide mimetic(Table 3).

CD4+Vβ8.2+ spleen cells = assay: Apoptosis (TUNEL, flow cytometry) of antigen-stimulated CD4+Vβ8.2+ spleen cells in vitro; format: cell-based, mouse; details: 150 μM peptide, data not shown
Experimental: To investigate whether the observed decrease in proliferative responses following treatment with CD28 peptides is a result of cell loss, cell death was measured by enzymatic in-situ labeling. Apoptotic cells among MBP NAc1-11 stimulated TCR Vβ 8.2+ CD4+ T cells were detected by staining with FITC labeled Tdt (terminal deoxynucleotidyl transferase). Cells incubated in DNAse served as positive control.
CD4+ T cells from pooled lymph nodes and spleen from B10.PL TCR Vβ 8.2 Vα 4 transgenic mice were cultured in RPMI 1640 in a 96 well round-bottom plate, essentially under the conditions specified for proliferation assays. Cells were harvested at the end of 48 hours and apoptotic cells among TCR Vβ 8.2+ CD4+ T cells were detected by the TUNEL method. Briefly, after washing twice with PBS containing 1-% rat serum, the cells were stained with PE labeled anti-mouseVβ 8.1,8.2 TCR (clone MR5-2) (Pharmingen, San Diego, Calif.) for 30 min at room temperature and washed. […] After washing, the DNA strand breaks in the cells were detected by incubating the cells with fluorescein labeled TUNEL mix (terminal deoxynucleotidyl transferase (Tdt)) for 60 min at 37° C. using an in situ cell death detection kit (Boehringer Mannheim, Mannheim, Germany) according to the manufacturer's recommendations. […] Cells were then washed with PBS and analyzed by flow cytometry.

[1] = read-out: ka, competition with CD28-Ig 3.2 μM, peptide C 0.125 × 10^5 nM
[2] = read-out: ka, competition with CD28-Ig 3.2 μM, peptide C 0.25 × 10^5 nM
[3] = read-out: ka, competition with CD28-Ig 3.2 μM, peptide C 0.5 × 10^5 nM
[4] = read-out: ka, competition with CD28-Ig 3.2 μM, peptide C 1 × 10^5 nM
[5] = read-out: ka, competition with CD28-Ig 3.2 μM, peptide C 2 × 10^5 nM
[6] = read-out: ka, competition with CD28-Ig 3.2 μM, peptide C 3 × 10^5 nM

Row | Compound | kd (CD80-Ig; peptide C 0.125 × 10^5 nM) | kd (CD80-Ig; peptide C 0.25 × 10^5 nM) | kd (CD80-Ig; peptide C 0.5 × 10^5 nM) | kd (CD80-Ig; peptide C 1 × 10^5 nM) | kd (CD80-Ig; peptide C 2 × 10^5 nM) | kd (CD80-Ig; peptide C 3 × 10^5 nM) | kon (CD80-Ig; [1]) | kon (CD80-Ig; [2]) | kon (CD80-Ig; [3]) | kon (CD80-Ig; [4]) | kon (CD80-Ig; [5]) | kon (CD80-Ig; [6]) | apoptosis (in words) (CD4+Vβ8.2+ spleen cells)
1 | CC[C@H](C)[C@H](NC(=O)[C@@H](NC(=O)CNC(=O)[C@H](CC(N)=O)NC(=O)[C@H](CO)NC(=O)[C@H](CCCNC(=N)N)NC(=O)[C@H](CCC(=O)O)NC(=O)[C@H](CC(N)=O)NC(=O)[C@H](CC(=O)O)NC(=O)[C@H](CC(C)C)NC(=O)[C@H](Cc1ccc(O)cc1)NC(=O)[C@@H]1CCCN1C(=O)[C@@H]1CCCN1C(=O)[C@@H]1CCCN1C(=O)[C@H](Cc1ccc(O)cc1)NC(=O)[C@H](CCSC)NC(=O)[C@H](Cc1ccccc1)NC(=O)[C@H](CCC(=O)O)NC(=O)[C@@H](NC(=O)[C@H](CCCCN)NC(C)=O)[C@@H](C)CC)[C@@H](C)O)C(N)=O [EL CD28] (Ac-KIEFMYPPPYLDNERSNGTI-NH2) | 0.101 s⁻¹ | 0.0195 s⁻¹ | 0.316 s⁻¹ | 0.0803 s⁻¹ | 0.0862 s⁻¹ | 6.89 s⁻¹ | 73400 M⁻¹ s⁻¹ | 3360 M⁻¹ s⁻¹ | 63200 M⁻¹ s⁻¹ | 31600 M⁻¹ s⁻¹ | 55100 M⁻¹ s⁻¹ | 2.36e+06 M⁻¹ s⁻¹ | increase in apoptosis
2 | CC[C@@H](C)[C@@H](NC(C)=O)C(=O)N[C@@H](C(=O)NCC(=O)N[C@H](CC(N)=O)C(=O)N[C@H](CO)C(=O)N[C@H](CCCNC(=N)N)C(=O)N[C@H](CCC(=O)O)C(=O)N[C@H](CC(N)=O)C(=O)N[C@H](CC(=O)O)C(=O)N[C@H](CC(C)C)C(=O)N[C@H](Cc1ccc(O)cc1)C(=O)N1CCC[C@@H]1C(=O)N1CCC[C@@H]1C(=O)N1CCC[C@@H]1C(=O)N[C@H](Cc1ccc(O)cc1)C(=O)N[C@H](CCSC)C(=O)N[C@H](Cc1ccccc1)C(=O)N[C@H](CCC(=O)O)C(=O)N[C@@H](C(=O)N[C@H](CCCCN)C(N)=O)[C@H](C)CC)[C@H](C)O [RI CD28] (Ac-[dI][dT]G[dN][dS][dR][dE][dN][dD][dL][dY][dP][dP][dP][dY][dM][dF][dE][dI][dK]-NH2) | 0.177 s⁻¹ | 0.0738 s⁻¹ | 0.275 s⁻¹ | 0.142 s⁻¹ | 0.0245 s⁻¹ | 0.0206 s⁻¹ | 105000 M⁻¹ s⁻¹ | 54400 M⁻¹ s⁻¹ | 92400 M⁻¹ s⁻¹ | 94700 M⁻¹ s⁻¹ | 23500 M⁻¹ s⁻¹ | 10700 M⁻¹ s⁻¹ | increase in apoptosis

— patent publication US7220822B2, “CD28 mimetics for blocking T cell mediated immune reactions” (The Ohio State University, priority 2000, dated 2007)
